Reference: patent US20260256792A1, “TREATMENT OF CHRONIC SPONTANEOUS URTICARIA BY ADMINISTERING (R)-2-[3-[4-AMINO-3-(2-FLUORO-4-PHENOXY-PHENYL)PYRAZOLO[3,4-D]PYRIMIDIN-1-YL]PIPERIDINE-1-CARBONYL]-4-METHYL-4-[4-(OXETAN-3-YL)PIPERAZIN-1-YL]PENT-2-ENENITRILE” (priority 2023, published 2026)

Test system: angioedema in CSU patients
Test: Phase 2 CSU study: angioedema activity score over 7 days (AAS7)
Format: in vivo, human
Details: 400 mg BID; for AAS7 = 0, RRD (%) for rilzabrutinib vs. placebo (95% CI) / AAS7 Post-baseline Mean (SD) / Participants with AAS7 = 0, Responder n (%) / AAS7 % Change difference for rilzabrutinib vs. placebo LS Mean (95% CI) / AAS7 Change difference for rilzabrutinib vs. placebo LS Mean (95% CI) / AAS7 Change from baseline LS Mean (SE) / AAS7 % Change from baseline LS Mean (SE) / AAS7 = 0, Non-responder n (%) / AAS7 = 0, OR (95% CI) for rilzabrutinib vs. placebo: angioedema at baseline; for Non-responder n (%), AAS7 = 0 / OR (95% CI) for rilzabrutinib vs. placebo, AAS7 = 0 / RRD (%) for rilzabrutinib vs. placebo (95% CI), AAS7 = 0 / Responder n (%), AAS7 = 0: outlier removed
Excerpt: The study comprises a 12 week, randomized, double-blind, placebo-controlled, multi-center, dose-ranging efficacy and safety phase, followed by a 40 week open label extension (OLE) phase (see FIG. 1). The study consists of three phases and an optional OLE phase. […] The weekly angioedema activity score (AAS7) was proposed as a tertiary endpoint. […] Patients were to complete the AAS using the e-diary. The e-diary was to be used once daily on the same time of each day recording of participant's answers to the angioedema activity score over 7 days (AAS7) questionnaire.

CC(C)(C=C(C#N)C(=O)N1CCC[C@@H](n2nc(-c3ccc(Oc4ccccc4)cc3F)c3c(N)ncnc32)C1)N1CCN(C2COC2)CC1 [rilzabrutinib, (R)-2-[3-[4-amino-3-(2-fluoro-4-phenoxy-phenyl)pyrazolo[3,4-d]pyrimidin-1-yl]piperidine-1-carbonyl]-4-methyl-4-[4-(oxetan-3-yl)piperazin-1-yl]pent-2-enenitrile]
AAS7 = 0, RRD (%) for rilzabrutinib vs. placebo (95% CI) (Week 8, omalizumab-naïve): 26.4 % | AAS7 Post-baseline Mean (SD) (Week 8, omalizumab-naïve): 9.97 (16.69) | Participants with AAS7 = 0, Responder n (%) (Week 8, omalizumab-naïve): 13 (50.0) n (%) | AAS7 % Change difference for rilzabrutinib vs. placebo LS Mean (95% CI) (Week 9, ITT): −26.88 (−56.35, 2.58) % | AAS7 Change difference for rilzabrutinib vs. placebo LS Mean (95% CI) (Week 9, ITT): −11.25 (−21.79, −0.72) | AAS7 Change from baseline LS Mean (SE) (Week 9, ITT): −40.70 (4.08) | AAS7 Post-baseline Mean (SD) (Week 9, ITT): 10.00 (17.78) | Non-responder n (%), AAS7 = 0 (Week 9, omalizumab-naïve): 18 (51.4) n (%) | OR (95% CI) for rilzabrutinib vs. placebo, AAS7 = 0 (Week 9, omalizumab-naïve): 0.919 | RRD (%) for rilzabrutinib vs. placebo (95% CI), AAS7 = 0 (Week 9, omalizumab-naïve): −2.1 % | Responder n (%), AAS7 = 0 (Week 9, omalizumab-naïve): 17 (48.6) n (%) | AAS7 % Change from baseline LS Mean (SE) (Week 9, omalizumab-naïve): −74.80 (12.27) % | AAS7 = 0, Non-responder n (%) (Week 9, omalizumab-naïve): 14 (53.8) n (%) | AAS7 = 0, OR (95% CI) for rilzabrutinib vs. placebo (Week 9, omalizumab-naïve): 1.787 | AAS7 = 0, RRD (%) for rilzabrutinib vs. placebo (95% CI) (Week 9, omalizumab-naïve): 14.5 % | AAS7 Post-baseline Mean (SD) (Week 9, omalizumab-naïve): 10.87 (18.30) | Participants with AAS7 = 0, Responder n (%) (Week 9, omalizumab-naïve): 12 (46.2) n (%) | AAS7 % Change difference for rilzabrutinib vs. placebo LS Mean (95% CI) (Week 10, ITT): −15.09 (−55.38, 25.21) % | AAS7 % Change from baseline LS Mean (SE) (Week 10, ITT): −64.07 (15.65) % | AAS7 Change difference for rilzabrutinib vs. placebo LS Mean (95% CI) (Week 10, ITT): −8.79 (−20.40, 2.82) | AAS7 Change from baseline LS Mean (SE) (Week 10, ITT): −39.12 (4.47) | AAS7 Post-baseline Mean (SD) (Week 10, ITT): 12.72 (19.89) | Non-responder n (%), AAS7 = 0 (Week 10, omalizumab-naïve): 19 (54.3) n (%) | OR (95% CI) for rilzabrutinib vs. placebo, AAS7 = 0 (Week 10, omalizumab-naïve): 0.945 | RRD (%) for rilzabrutinib vs. placebo (95% CI), AAS7 = 0 (Week 10, omalizumab-naïve): −1.4 % | Responder n (%), AAS7 = 0 (Week 10, omalizumab-naïve): 16 (45.7) n (%) | AAS7 % Change from baseline LS Mean (SE) (Week 10, omalizumab-naïve): −60.11 (16.65) % | AAS7 = 0, Non-responder n (%) (Week 10, omalizumab-naïve): 15 (57.7) n (%) | AAS7 = 0, OR (95% CI) for rilzabrutinib vs. placebo (Week 10, omalizumab-naïve): 1.734 | AAS7 = 0, RRD (%) for rilzabrutinib vs. placebo (95% CI) (Week 10, omalizumab-naïve): 13.1 % | AAS7 Post-baseline Mean (SD) (Week 10, omalizumab-naïve): 13.93 (20.43) | Participants with AAS7 = 0, Responder n (%) (Week 10, omalizumab-naïve): 11 (42.3) n (%) | AAS7 % Change difference for rilzabrutinib vs. placebo LS Mean (95% CI) (Week 11, ITT): −23.43 (−51.36, 4.50) % | AAS7 % Change from baseline LS Mean (SE) (Week 11, ITT): −84.81 (10.85) % | AAS7 Change difference for rilzabrutinib vs. placebo LS Mean (95% CI) (Week 11, ITT): −8.17 (−19.55, 3.20) | AAS7 Change from baseline LS Mean (SE) (Week 11, ITT): −42.03 (4.41) | AAS7 Post-baseline Mean (SD) (Week 11, ITT): 10.31 (18.47) | Non-responder n (%), AAS7 = 0 (Week 11, omalizumab-naïve): 14 (40.0) n (%) | OR (95% CI) for rilzabrutinib vs. placebo, AAS7 = 0 (Week 11, omalizumab-naïve): 1.516 | RRD (%) for rilzabrutinib vs. placebo (95% CI), AAS7 = 0 (Week 11, omalizumab-naïve): 10.4 % | Responder n (%), AAS7 = 0 (Week 11, omalizumab-naïve): 21 (60.0) n (%) | AAS7 = 0, Non-responder n (%) (Week 11, omalizumab-naïve): 13 (50.0) n (%) | AAS7 = 0, OR (95% CI) for rilzabrutinib vs. placebo (Week 11, omalizumab-naïve): 2.010 | AAS7 = 0, RRD (%) for rilzabrutinib vs. placebo (95% CI) (Week 11, omalizumab-naïve): 17.8 % | AAS7 Post-baseline Mean (SD) (Week 11, omalizumab-naïve): 11.30 (19.07) | Participants with AAS7 = 0, Responder n (%) (Week 11, omalizumab-naïve): 13 (50.0) n (%) | AAS7 % Change from baseline LS Mean (SE) (Week 12, ITT): −87.51 (10.12) % | AAS7 Change difference for rilzabrutinib vs. placebo LS Mean (95% CI) (Week 12, ITT): −7.07 (−17.69, 3.54) | AAS7 Change from baseline LS Mean (SE) (Week 12, ITT): −42.38 (4.13) | AAS7 Post-baseline Mean (SD) (Week 12, ITT): 10.67 (17.53) | patients with angioedema score (AAS7) of 0 (Week 12, omalizumab-naïve): 42.3% | Non-responder n (%), AAS7 = 0 (Week 12, omalizumab-naïve): 18 (51.4) n (%) | OR (95% CI) for rilzabrutinib vs. placebo, AAS7 = 0 (Week 12, omalizumab-naïve): 0.925 | RRD (%) for rilzabrutinib vs. placebo (95% CI), AAS7 = 0 (Week 12, omalizumab-naïve): −1.9 % | Responder n (%), AAS7 = 0 (Week 12, omalizumab-naïve): 17 (48.6) n (%) | AAS7 = 0, Non-responder n (%) (Week 12, omalizumab-naïve): 15 (57.7) n (%) | AAS7 = 0, OR (95% CI) for rilzabrutinib vs. placebo (Week 12, omalizumab-naïve): 1.627 | AAS7 = 0, RRD (%) for rilzabrutinib vs. placebo (95% CI) (Week 12, omalizumab-naïve): 11.3 % | AAS7 Change difference for rilzabrutinib vs. placebo LS Mean (95% CI) (Week 12, omalizumab-naïve): −8.14 (−19.74, 3.45)
